Measurements as given in patent publication US7465559B2, “Method for calibrating antibiotic disk diffusion testing of microorganisms” (Bioscand AB, priority 2001, dated 2008).

How the values were obtained:
[1] = system: Escherichia coli isolates; test: disk diffusion test of Escherichia coli clinical isolates against norfloxacin, Karolinska hospital, zone diameter histograms 1988 and 1999; format: cell-based
Experimental: (§1) Different types of susceptibility tests can be used to test the antimicrobic susceptibility of a microorganism. One type of susceptibility test is the disk diffusion test. This is a standardized test, in which a plate containing a growth medium in agar gel is inoculated with a microbial isolate and one or more disks impregnated with fixed concentrations of antibiotics are placed thereon. After appropriate incubation, the diameter of zones of inhibition around the disks (if present) are registered in order to determine the sensitivity of the inoculated microorganism to the particular antimicrobial agent impregnated in each disk.
The microbial species to be tested can be any cultivable microorganism, such as a bacterial species or a fungal species. In order to obtain species-related and laboratory-related interpretive breakpoints, a histogram of for example clinical isolates can be used. The method is especially suitable for analyzing inhibition zone diameters from disk diffusion tests with clinical isolates from a bacterial species, which may contain resistant strains against an antibiotic. Thus, no outliers are excluded. The number of isolates or percent isolates are plotted on the y-axis and the growth inhibition zone diameter values from paper disks impregnated with the antibiotic are plotted on the x-axis. When the method of O'Brien et al. (J. Am. Med. Assoc. 210:84, 1969) is used, histograms are obtained with percent isolates on the y-axis and zone diameter values from 6 mm (paper disk diameter) to 60 mm on the x-axis. However, the inventive method is equally well adapted for a microdilution tests, the concentration data being minimal inhibitory concentrations. All data can be computerized.
It can be seen that the zone diameter values for these clinical isolates cluster around 29-30 mm with a distribution of ±8 mm.
The results from 1988 in FIG. 1 were compared with similar results eleven years later (FIG. 2). In this histogram a number of isolates now appear, which have inhibition zones all the way down to no zone, the size of the 6 mm disk. The comparison was accomplished by means of computer analysis according to the inventive method for calibrating antimicrobic susceptibility testings of microorganisms.
First, the slope downwards was tracked and the shift to decreasing values at the peak position identified by comparing sliding means (each based on two zone diameter figures). Then, the percentages of the isolates of the upper half of the population were determined and converted to probit values. A regression using the least squares method was then performed and the theoretical percentages for the whole population calculated.
In this calculation, it is assumed that 3 SD below the mean includes 99.86 percent of the normally susceptible strains in this group. A suitable limit for susceptibility interpretation and comparative analysis of antimicrobic resistance could then be defined as three times the standard deviation below the mean value.

E. coli [2] = test: disk diffusion test of E. coli against gentamicin, laboratory AR (South America), NCCLS standardization; format: cell-based, Escherichia coli; conditions: 5 μg gentamicin disk
Experimental: as §1
(§2) In this example histograms of zone diameter values from disk test results for E. coli tested against the antibiotic gentamicin were analyzed according to the principle of normalized resistance interpretation. One laboratory (KS) used the SRGA (Swedish Reference Group for Antibiotics) methodology and a disk content of 10 μg gentamicin, whereas the other laboratory on a different continent (AR, a clinical microbiology laboratory in South America) used the NCCLS (National Committee for Clinical Laboratory Standards) standardization and a 5 μg gentamicin disk.
(§3) The different methods used result in different positionings of the major, susceptible populations of strains (FIG. 5). […]

E. coli [3] = test: disk diffusion test of E. coli against gentamicin, laboratory KS, SRGA methodology; format: cell-based, Escherichia coli; conditions: 10 μg gentamicin disk
Experimental: as §1, §2, §3

CCn1cc(C(=O)O)c(=O)c2cc(F)c(N3CCNCC3)cc21 [norfloxacin]
mean value of inhibition zone diameters, customary statistical procedure ([1]; 1988, 3756 isolates, disk 10 μg, SD 3.22): 29.16 mm | mean of normalized Gaussian distribution of theoretical normal population ([1]; 1988, 3756 isolates, disk 10 μg, SD 3.25): 29.27 mm | zone diameter values of clinical isolates cluster around ([1]; 1988 histogram, disk content 10 μg, distribution ±8 mm): 29-30 mm | limit for resistance (zone breakpoint, 3 SD below normalized mean) ([1]; 1988 population): 19 mm | percent resistance of isolates ([1]; 1988 population, limit 19 mm): 0.56% | limit for resistance (zone breakpoint, 3 SD below normalized mean) ([1]; 1999 population): 20 mm | percent resistance of isolates ([1]; 1999 population, limit 20 mm): 10.8% | mean of normalized Gaussian distribution of theoretical normal population ([1]; eleven years later (1999), 5944 isolates, SD 3.22): 30.49 mm | mean value of inhibition zone diameters, customary statistical procedure ([1]; eleven years later (1999), all 5944 isolates, SD 7.39): 28.24 mm

gentamicin
R-limit for resistance (normalized zone breakpoint) (E. coli [2]): < 17 mm | R-limit for resistance (normalized zone breakpoint) (E. coli [3]): < 21 mm
